According to patent US7691417B2, “Tumor and mutation suppressing plant extract” (Clemson University Research Foundation, priority 2004, dated 2010):

Legend:
[1] = tested on: Salmonella typhimurium (Strain TA 100); assay: Ames Salmonella/microsome mutagenic test with human S9 mix and mutagen 2-AA; assay type: cell-based
Procedure: Mutagenicity is evaluated following the Ames Salmonella mutagenic assay, a bacterial reverse mutation test using a histidine-dependent […] mutant of Salmonella typhimurium lacking both normal DNA repair mechanisms and the ability to grow on a histidine-free medium. See, D. R. Maron and B. Ames. Mutation Research. 1980. 113:173-215, incorporated herein by reference in its entirety. As one skilled in the art understands, the test assumes that DNA-altering chemicals cause mutations and that mutagenicity is closely associated with carcinogenicity. Induced mutations are estimated by the number of bacteria capable of growing on a histidine-free medium. […]
Colonies chosen to generate overnight cultures were grown in 5 ml nutrient broth #2 (Cat No. CM 0067; Oxid Products; Basingstone, Hampshire, UK) at […] to a density of 1-2×10^9 per ml (absorbance of 0.96±0.2 at 600 nm). […]
Test compounds with the S9 mix were incubated for 30 minutes at 37° C., filter sterilized (0.2 μm Acrodisc® V45W500; Pall Galman, Ann Arbor, Mich.), and divided into two 1.5 ml duplicate aliquots. […] Each aliquot was vortexed briefly and immediately poured on Petri dishes containing the minimal glucose agar (MGA) which were allowed to solidify, then inverted and incubated at 37° C. in the dark for 48 hours, after which revertant colonies on control and test plates were counted.

[2] = tested on: tumors induced by A. tumefaciens on potato discs; assay: Potato disc tumor induction assay (Agrobacterium tumefaciens-induced tumors); assay type: cell-based, Solanium tuberosum L.
Procedure: Tumor suppression is evaluated following the well-known Agrobacterium tumor induction assay procedure. The assay depends on the unique property of Agrobacterium tumefaciens of inserting a portion of its tumor-inducing (Ti) plasmid into the chromosomal DNA of a wounded plant, causing tumor-like growths on the plant, a condition commonly known to those skilled in the art as Crown Gall disease. Antitumor potential is measured by tumor suppression on aseptic potato discs treated with the plant extract. See A. B. Galsky, et al. J. Nat. Cancer Inst. 1981. 67:689-692, incorporated herein by reference, in its entirety. Antitumor activity detected by the Agrobacterium assay is correlated with suppression of tumors in animals; thus, plant extracts that suppress Agrobacterium-induced tumor formation have significant potential as human anticarcinogens.
Antitumor effects of extracts were tested using the Potato Tumor Induction method of McLaughlin's laboratories. 1 A. tumefaciens was cultured in Difco Yeast Extract Medium for a period of 48-72 hours at […] for use in the assay. […]

SMILES	revertant colonies formed in the presence of 2-AA ([1]; 2-AA alone (DMSO + S9), no extract)	colonies formed with 2-AA relative to the control ([1]; 991.6 versus control 48.2)	% INHIBITION (tumor) ([2]; parallel study, dilution 1:10,000, Table 2) [%]	tumor inhibition ([2]; positive inhibitory control of the Table 1 study, camptothecin stock 100 μg/ml) [%]
Nc1ccc2cc3ccccc3cc2c1 [2-AA, 2-aminianthuracene]	991.6	approximately 20 fold	–	–
CC[C@@]1(O)C(=O)OCc2c1cc1n(c2=O)Cc2cc3ccccc3nc2-1 [camptothecin, Camptothecin]	–	–	100	98.2
